Laboratory results published in patent publication US20060154923A1, “N-phenyl-3-cyclopropylpyrazole-4-carbonitriles as ectoparasiticidal agents” (priority 2002, published 2006).
Where two headings read alike, the source gives them in different places.

Assays:
Assay type in all cases: in vivo
[1] = test system: Rhipacephalus sanguineus, adult ticks; experiment: Contact activity against adult ticks, coated glass vial assay
Experimental: Evaluation of the Efficacy of Test Compounds Against Adult Ticks
(§1) The contact activity of a test compound against Rhipacephalus sanguineus, adult ticks, is evaluated in a coated glass vial assay. In this evaluation, a solution of test compound in acetone is allowed to dry on the interior surface of a 20 mL vial. Five unfed adult ticks are added to the treated vial and mortality is assessed periodically for up to 48 h. All treatments are replicated 2 times. The data are averaged.

[2] = test system: Ctenocephatides felis, adult cat fleas; experiment: Contact activity against adult cat fleas, coated glass vial assay
Experimental: Evaluation of the Efficacy of Test Compounds Against Adult Cat Fleas
as §1, with “Ctenocephatides felis,” for “Rhipacephalus sanguineus,”, “cat fleas,” for “ticks,”, “coated,” for “coated”, “Ten” for “Five”, “cat fleas” for “ticks”

[3] = test system: newly emerged larvae of Lucilia sericata, blowfly; experiment: Efficacy against blowfly larvae, treated paper/serum bioassay; conditions: for % Mortality 24 h / % Mortality 48 h: blowfly larvae; for mortality at 0.2 ppm / mortality at 2 ppm / mortality at 20 ppm: Lucilia sericata
Experimental: Evaluation of Efficacy of Test Compounds Against Blowfly Larvae
The efficacy of a test compound against newly emerged larvae of Lucilia sericata, blowfly, is evaluated using a treated paper/serum bioassay. In this evaluation, a solution of test compound in acetone is applied to a filter paper disc and the disc is allowed to dry. Bovine serum and about 20 newly emerged blowfly larvae are added to the treated paper disc and the mortality is assessed at 24 h and 48 h. The data are averaged.

[4] = 24 h, read-out: % Mortality 24 h
[5] = 48 h, read-out: % Mortality 48 h

Structure (SMILES): CC1(c2nn(-c3c(Cl)cc(C(F)(F)F)cc3Cl)c(Cl)c2C#N)CC1(Br)Br (centres unmarked) [Example 20]
- % Mortality 4 h ([1]; Conc. 0.78 ug/cm2, 4 h): 0%
- % Mortality 24 h ([1]; Conc. 0.78 ug/cm2, 24 h): 20%
- % Mortality 4 h ([1]; Conc. 7.80 ug/cm2, 4 h): 20%
- % Mortality 24 h ([1]; Conc. 7.80 ug/cm2, 24 h): 50%
- % Mortality 4 h ([2]; Conc. 2 ug/cm2, 4 h): 20%
- % Mortality 24 h ([2]; Conc. 2 ug/cm2, 24 h): 100%
- % Mortality 24 h ([3]; Conc. 0.2 ppm, 24 h): 0%
- % Mortality 48 h ([3]; Conc. 0.2 ppm, 48 h): 0%
- % Mortality 24 h ([3]; Conc. 2.0 ppm, 24 h): 100%
- % Mortality 48 h ([3]; Conc. 2.0 ppm, 48 h): 100%
- % Mortality 24 h ([3]; Conc. 20.0 ppm, 24 h): 100%
- % Mortality 48 h ([3]; Conc. 20.0 ppm, 48 h): 100%

Structure (SMILES): CC1(c2nn(-c3c(Cl)cc(C(F)(F)F)cc3Cl)c(N)c2C#N)CC1(Br)Br (centres unmarked) [Example 21]
- % Mortality 4 h ([1]; Conc. 0.78 ug/cm2, 4 h): 10%
- % Mortality 24 h ([1]; Conc. 0.78 ug/cm2, 24 h): 10%
- % Mortality 4 h ([1]; Conc. 7.80 ug/cm2, 4 h): 0%
- % Mortality 24 h ([1]; Conc. 7.80 ug/cm2, 24 h): 40%
- % Mortality 4 h ([2]; Conc. 2 ug/cm2, 4 h): 0%
- % Mortality 24 h ([2]; Conc. 2 ug/cm2, 24 h): 0%
- % Mortality 24 h ([3]; Conc. 0.2 ppm, 24 h): 0%
- % Mortality 48 h ([3]; Conc. 0.2 ppm, 48 h): 0%
- % Mortality 24 h ([3]; Conc. 2.0 ppm, 24 h): 95%
- % Mortality 48 h ([3]; Conc. 2.0 ppm, 48 h): 100%
- % Mortality 24 h ([3]; Conc. 20.0 ppm, 24 h): 90%
- % Mortality 48 h ([3]; Conc. 20.0 ppm, 48 h): 100%

Structure (SMILES): CC1(c2nn(-c3c(Cl)cc(C(F)(F)F)cc3Cl)c(Br)c2C#N)CC1(Br)Br (centres unmarked) [Example 22]
- % Mortality 4 h ([1]; Conc. 0.78 ug/cm2, 4 h): 20%
- % Mortality 24 h ([1]; Conc. 0.78 ug/cm2, 24 h): 30%
- % Mortality 4 h ([1]; Conc. 7.80 ug/cm2, 4 h): 0%
- % Mortality 24 h ([1]; Conc. 7.80 ug/cm2, 24 h): 60%
- % Mortality 4 h ([2]; Conc. 2 ug/cm2, 4 h): 0%
- % Mortality 24 h ([2]; Conc. 2 ug/cm2, 24 h): 100%
- % Mortality 24 h ([3]; Conc. 0.2 ppm, 24 h): 0%
- % Mortality 48 h ([3]; Conc. 0.2 ppm, 48 h): 0%
- % Mortality 24 h ([3]; Conc. 2.0 ppm, 24 h): 100%
- % Mortality 48 h ([3]; Conc. 2.0 ppm, 48 h): 100%
- % Mortality 24 h ([3]; Conc. 20.0 ppm, 24 h): 100%
- % Mortality 48 h ([3]; Conc. 20.0 ppm, 48 h): 100%

Structure (SMILES): CC1(c2nn(-c3c(Cl)cc(C(F)(F)F)cc3Cl)c(Br)c2C#N)CC1(Cl)Cl (centres unmarked) [Example 29]
- % Mortality 4 h ([1]; Conc. 0.78 ug/cm2, 4 h): 0%
- % Mortality 24 h ([1]; Conc. 0.78 ug/cm2, 24 h): 40%
- % Mortality 4 h ([1]; Conc. 7.80 ug/cm2, 4 h): 20%
- % Mortality 24 h ([1]; Conc. 7.80 ug/cm2, 24 h): 60%
- % Mortality 4 h ([2]; Conc. 0.02 ug/cm2, 4 h): 10%
- % Mortality 24 h ([2]; Conc. 0.02 ug/cm2, 24 h): 100%
- % Mortality 4 h ([2]; Conc. 0.2 ug/cm2, 4 h): 20%
- % Mortality 24 h ([2]; Conc. 0.2 ug/cm2, 24 h): 100%
- % Mortality 4 h ([2]; Conc. 2 ug/cm2, 4 h): 50%
- % Mortality 24 h ([2]; Conc. 2 ug/cm2, 24 h): 100%
- % Mortality 24 h ([3]; Conc. 0.2 ppm, 24 h): 15%
- % Mortality 48 h ([3]; Conc. 0.2 ppm, 48 h): 15%
- % Mortality 24 h ([3]; Conc. 2.0 ppm, 24 h): 100%
- % Mortality 48 h ([3]; Conc. 2.0 ppm, 48 h): 100%
- % Mortality 24 h ([3]; Conc. 20.0 ppm, 24 h): 100%
- % Mortality 48 h ([3]; Conc. 20.0 ppm, 48 h): 100%

Structure (SMILES): CC1(c2nn(-c3c(Cl)cc(C(F)(F)F)cc3Cl)c(I)c2C#N)CC1(Cl)Cl (centres unmarked) [Example 31]
- % Mortality 4 h ([1]; Conc. 0.78 ug/cm2, 4 h): 10%
- % Mortality 24 h ([1]; Conc. 0.78 ug/cm2, 24 h): 20%
- % Mortality 4 h ([1]; Conc. 7.80 ug/cm2, 4 h): 50%
- % Mortality 24 h ([1]; Conc. 7.80 ug/cm2, 24 h): 50%
- % Mortality 4 h ([2]; Conc. 2 ug/cm2, 4 h): 20%
- % Mortality 24 h ([2]; Conc. 2 ug/cm2, 24 h): 100%
- % Mortality 24 h ([3]; Conc. 0.2 ppm, 24 h): 0%
- % Mortality 48 h ([3]; Conc. 0.2 ppm, 48 h): 0%
- % Mortality 24 h ([3]; Conc. 2.0 ppm, 24 h): 95%
- % Mortality 48 h ([3]; Conc. 2.0 ppm, 48 h): 100%
- % Mortality 24 h ([3]; Conc. 20.0 ppm, 24 h): 97%
- % Mortality 48 h ([3]; Conc. 20.0 ppm, 48 h): 100%

Structure (SMILES): CN(C)c1c(C#N)c(C2(C)CC2(Cl)Cl)nn1-c1c(Cl)cc(C(F)(F)F)cc1Cl (centres unmarked) [Example 32]
- % Mortality 4 h ([1]; Conc. 0.78 ug/cm2, 4 h): 0%
- % Mortality 24 h ([1]; Conc. 0.78 ug/cm2, 24 h): 60%
- % Mortality 4 h ([1]; Conc. 7.80 ug/cm2, 4 h): 0%
- % Mortality 24 h ([1]; Conc. 7.80 ug/cm2, 24 h): 30%
- % Mortality 4 h ([2]; Conc. 2 ug/cm2, 4 h): 0%
- % Mortality 24 h ([2]; Conc. 2 ug/cm2, 24 h): 100%
- % Mortality 24 h ([3]; Conc. 0.2 ppm, 24 h): 0%
- % Mortality 48 h ([3]; Conc. 0.2 ppm, 48 h): 0%
- % Mortality 24 h ([3]; Conc. 2.0 ppm, 24 h): 0%
- % Mortality 48 h ([3]; Conc. 2.0 ppm, 48 h): 0%
- % Mortality 24 h ([3]; Conc. 20.0 ppm, 24 h): 91%
- % Mortality 48 h ([3]; Conc. 20.0 ppm, 48 h): 96%

Structure (SMILES): N#Cc1nn(-c2c(Cl)cc(C(F)(F)F)cc2Cl)c(N)c1[S+]([O-])C(F)(F)F (centres unmarked) [Standard, Fipronil, reference compound]
- % Mortality 4 h ([1]; Conc. 0.78 ug/cm2, 4 h): 90%
- % Mortality 24 h ([1]; Conc. 0.78 ug/cm2, 24 h): 100%
- % Mortality 4 h ([1]; Conc. 7.80 ug/cm2, 4 h): 100%
- % Mortality 24 h ([1]; Conc. 7.80 ug/cm2, 24 h): 100%
- % Mortality 4 h ([2]; Conc. 0.02 ug/cm2, 4 h): 0%
- % Mortality 24 h ([2]; Conc. 0.02 ug/cm2, 24 h): 100%
- % Mortality 4 h ([2]; Conc. 0.2 ug/cm2, 4 h): 10%
- % Mortality 24 h ([2]; Conc. 0.2 ug/cm2, 24 h): 100%
- % Mortality 4 h ([2]; Conc. 2 ug/cm2, 4 h): 30%
- % Mortality 24 h ([2]; Conc. 2 ug/cm2, 24 h): 100%
- mortality at 0.2 ppm [3, 4]: 0%
- mortality at 2 ppm [3, 4]: 100%
- mortality at 20 ppm [3, 4]: 100%
- mortality at 0.2 ppm [3, 5]: 100%
- mortality at 2 ppm [3, 5]: 100%
- mortality at 20 ppm [3, 5]: 100%
